{
  "source": "paper PMC8799717",
  "about": "“Pharmacological targeting PIKfyve and tubulin as an effective treatment strategy for double-hit lymphoma” (Cell Death Discovery, 2022)",
  "assay_in_all_cases": "biochemical",
  "set-up_in_all_cases": "KINOMEscan active-site-directed competition binding panel, 468 kinases, percent of DMSO control at 1 uM",
  "settings_in_all_cases": "KINOMEscan binding, percent of DMSO control; read-out: Ctrl%",
  "key": {"ALK(C1156Y)": {"target": "ALK(C1156Y) (Homo sapiens, UniProt Q9UM73, C1156Y)"}, "CAMK1G": {"target": "CAMK1G (Homo sapiens, UniProt Q96NX5)"}, "CDK4-cyclinD1": {"target": "T1, CDK4-cyclinD1 (Homo sapiens, UniProt P11802)", "T1 construct": "cyclinD1"}, "CSF1R-autoinhibited": {"target": "CSF1R-autoinhibited (Homo sapiens, UniProt P07333)"}, "DAPK3": {"target": "DAPK3 (Homo sapiens, UniProt O43293)"}, "EGFR(E746-A750del)": {"target": "EGFR(E746-A750del) (Homo sapiens, UniProt P00533, DEL746-750)"}, "EGFR(G719C)": {"target": "EGFR(G719C) (Homo sapiens, UniProt P00533, G719C)"}, "ERK2": {"target": "T2, ERK2 (Homo sapiens, UniProt P28482)", "T2 construct": "gene MAPK1"}, "FGFR1": {"target": "FGFR1 (Homo sapiens, UniProt P11362)"}, "FLT3(N841I)": {"target": "FLT3(N841I) (Homo sapiens, UniProt P36888, N841I)"}, "HPK1": {"target": "T3, HPK1 (Homo sapiens, UniProt Q92918)", "T3 construct": "gene MAP4K1"}, "KIT(D816V)": {"target": "KIT(D816V) (Homo sapiens, UniProt P10721, D816V)", "sequence (P10721 whole entry D816V)": "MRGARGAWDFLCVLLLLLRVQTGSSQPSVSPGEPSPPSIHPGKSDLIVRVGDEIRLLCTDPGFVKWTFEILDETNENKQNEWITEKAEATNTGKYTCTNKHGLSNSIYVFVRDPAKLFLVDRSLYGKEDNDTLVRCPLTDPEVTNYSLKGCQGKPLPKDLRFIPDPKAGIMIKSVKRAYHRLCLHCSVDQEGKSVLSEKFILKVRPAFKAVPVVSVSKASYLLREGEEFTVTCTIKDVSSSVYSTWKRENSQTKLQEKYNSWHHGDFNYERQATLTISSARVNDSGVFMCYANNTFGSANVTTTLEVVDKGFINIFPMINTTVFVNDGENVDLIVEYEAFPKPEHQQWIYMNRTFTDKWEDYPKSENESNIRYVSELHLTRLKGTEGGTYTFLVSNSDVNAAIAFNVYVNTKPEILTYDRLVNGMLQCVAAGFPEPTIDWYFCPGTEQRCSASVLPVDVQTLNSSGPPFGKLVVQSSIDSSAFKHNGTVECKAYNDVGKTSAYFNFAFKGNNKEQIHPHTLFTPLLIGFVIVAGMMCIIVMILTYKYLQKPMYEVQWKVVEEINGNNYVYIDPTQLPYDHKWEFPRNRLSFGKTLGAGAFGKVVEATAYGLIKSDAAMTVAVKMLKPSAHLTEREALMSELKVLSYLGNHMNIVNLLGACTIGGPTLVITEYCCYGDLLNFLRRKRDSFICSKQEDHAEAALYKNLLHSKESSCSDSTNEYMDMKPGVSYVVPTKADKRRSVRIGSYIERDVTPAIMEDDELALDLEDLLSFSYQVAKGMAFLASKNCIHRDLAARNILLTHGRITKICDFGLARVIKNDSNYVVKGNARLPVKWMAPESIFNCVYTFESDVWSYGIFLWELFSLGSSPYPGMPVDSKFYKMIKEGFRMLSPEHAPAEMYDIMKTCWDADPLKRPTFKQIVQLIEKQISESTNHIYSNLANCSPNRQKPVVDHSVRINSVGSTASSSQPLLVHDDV"}, "KIT(L576P)": {"target": "KIT(L576P) (Homo sapiens, UniProt P10721, L576P)", "sequence (P10721 whole entry L576P)": "as the sequence (P10721 whole entry D816V) above, with L576P, V816D counted along it"}, "MARK2": {"target": "MARK2 (Homo sapiens, UniProt Q7KZI7)"}, "MEK4": {"target": "T4, MEK4 (Homo sapiens, UniProt P45985)", "T4 construct": "gene MAP2K4", "T4 sequence (P45985 whole entry)": "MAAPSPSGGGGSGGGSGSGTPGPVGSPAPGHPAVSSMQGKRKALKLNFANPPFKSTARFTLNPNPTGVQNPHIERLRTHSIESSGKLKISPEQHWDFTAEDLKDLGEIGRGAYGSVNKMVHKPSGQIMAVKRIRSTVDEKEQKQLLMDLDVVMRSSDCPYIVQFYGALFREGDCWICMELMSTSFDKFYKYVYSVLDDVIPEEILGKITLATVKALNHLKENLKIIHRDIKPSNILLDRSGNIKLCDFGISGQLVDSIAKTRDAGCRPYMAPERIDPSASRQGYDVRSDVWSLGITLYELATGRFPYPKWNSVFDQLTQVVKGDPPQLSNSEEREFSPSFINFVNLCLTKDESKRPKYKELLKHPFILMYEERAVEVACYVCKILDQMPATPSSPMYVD"}, "MST4": {"target": "T5, MST4 (Homo sapiens, UniProt Q9P289)", "T5 construct": "gene STK26"}, "NEK5": {"target": "NEK5 (Homo sapiens, UniProt Q6P3R8)", "sequence (Q6P3R8 whole entry)": "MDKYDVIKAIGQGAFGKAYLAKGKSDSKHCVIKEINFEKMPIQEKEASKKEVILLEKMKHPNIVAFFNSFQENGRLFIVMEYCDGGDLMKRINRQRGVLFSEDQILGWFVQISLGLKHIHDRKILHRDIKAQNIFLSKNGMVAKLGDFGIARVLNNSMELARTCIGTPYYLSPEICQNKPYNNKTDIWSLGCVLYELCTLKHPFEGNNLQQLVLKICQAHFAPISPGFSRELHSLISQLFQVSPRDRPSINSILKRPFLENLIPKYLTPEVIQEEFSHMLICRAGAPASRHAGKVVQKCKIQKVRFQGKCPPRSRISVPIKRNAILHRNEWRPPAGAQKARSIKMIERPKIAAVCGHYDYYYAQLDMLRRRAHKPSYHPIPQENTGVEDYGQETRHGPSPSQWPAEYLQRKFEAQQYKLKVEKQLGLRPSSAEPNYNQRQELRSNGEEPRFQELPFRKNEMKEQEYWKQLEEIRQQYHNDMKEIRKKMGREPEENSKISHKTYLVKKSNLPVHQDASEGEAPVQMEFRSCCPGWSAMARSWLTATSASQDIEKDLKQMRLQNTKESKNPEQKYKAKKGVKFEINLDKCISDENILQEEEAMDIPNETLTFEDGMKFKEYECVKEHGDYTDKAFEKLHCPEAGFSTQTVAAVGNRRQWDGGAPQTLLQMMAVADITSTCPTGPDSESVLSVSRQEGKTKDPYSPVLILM"}, "PIK3CD": {"target": "PIK3CD (Homo sapiens, UniProt O00329)", "sequence (O00329 whole entry)": "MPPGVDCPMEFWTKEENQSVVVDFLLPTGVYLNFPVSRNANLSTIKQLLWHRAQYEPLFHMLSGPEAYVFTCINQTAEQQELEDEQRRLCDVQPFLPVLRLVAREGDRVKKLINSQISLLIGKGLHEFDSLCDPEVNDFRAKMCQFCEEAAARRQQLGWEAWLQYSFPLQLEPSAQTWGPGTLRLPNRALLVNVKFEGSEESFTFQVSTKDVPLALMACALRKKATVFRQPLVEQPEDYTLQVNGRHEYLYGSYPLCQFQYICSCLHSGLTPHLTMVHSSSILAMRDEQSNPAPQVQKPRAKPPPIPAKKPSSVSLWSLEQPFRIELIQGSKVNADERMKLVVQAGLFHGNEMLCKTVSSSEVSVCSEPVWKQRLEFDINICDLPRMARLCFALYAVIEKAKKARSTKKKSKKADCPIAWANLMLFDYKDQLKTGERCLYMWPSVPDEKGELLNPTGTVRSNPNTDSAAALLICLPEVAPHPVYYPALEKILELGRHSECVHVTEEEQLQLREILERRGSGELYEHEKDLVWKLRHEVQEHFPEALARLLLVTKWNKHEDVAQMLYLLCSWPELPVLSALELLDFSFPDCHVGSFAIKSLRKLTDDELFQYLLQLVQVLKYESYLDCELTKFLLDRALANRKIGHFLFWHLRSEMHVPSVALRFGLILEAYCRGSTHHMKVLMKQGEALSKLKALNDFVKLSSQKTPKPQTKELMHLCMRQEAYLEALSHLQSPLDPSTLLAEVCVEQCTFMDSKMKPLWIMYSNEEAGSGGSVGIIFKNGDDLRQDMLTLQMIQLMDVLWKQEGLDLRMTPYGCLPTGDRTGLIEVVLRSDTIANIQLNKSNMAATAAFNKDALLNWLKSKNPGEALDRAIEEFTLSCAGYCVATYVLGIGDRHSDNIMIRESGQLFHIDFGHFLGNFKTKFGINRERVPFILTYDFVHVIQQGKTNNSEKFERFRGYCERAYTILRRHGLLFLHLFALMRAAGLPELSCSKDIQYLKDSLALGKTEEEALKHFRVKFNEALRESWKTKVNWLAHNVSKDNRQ"}, "PIK3CG": {"target": "PIK3CG (Homo sapiens, UniProt P48736)", "sequence (P48736 whole entry)": "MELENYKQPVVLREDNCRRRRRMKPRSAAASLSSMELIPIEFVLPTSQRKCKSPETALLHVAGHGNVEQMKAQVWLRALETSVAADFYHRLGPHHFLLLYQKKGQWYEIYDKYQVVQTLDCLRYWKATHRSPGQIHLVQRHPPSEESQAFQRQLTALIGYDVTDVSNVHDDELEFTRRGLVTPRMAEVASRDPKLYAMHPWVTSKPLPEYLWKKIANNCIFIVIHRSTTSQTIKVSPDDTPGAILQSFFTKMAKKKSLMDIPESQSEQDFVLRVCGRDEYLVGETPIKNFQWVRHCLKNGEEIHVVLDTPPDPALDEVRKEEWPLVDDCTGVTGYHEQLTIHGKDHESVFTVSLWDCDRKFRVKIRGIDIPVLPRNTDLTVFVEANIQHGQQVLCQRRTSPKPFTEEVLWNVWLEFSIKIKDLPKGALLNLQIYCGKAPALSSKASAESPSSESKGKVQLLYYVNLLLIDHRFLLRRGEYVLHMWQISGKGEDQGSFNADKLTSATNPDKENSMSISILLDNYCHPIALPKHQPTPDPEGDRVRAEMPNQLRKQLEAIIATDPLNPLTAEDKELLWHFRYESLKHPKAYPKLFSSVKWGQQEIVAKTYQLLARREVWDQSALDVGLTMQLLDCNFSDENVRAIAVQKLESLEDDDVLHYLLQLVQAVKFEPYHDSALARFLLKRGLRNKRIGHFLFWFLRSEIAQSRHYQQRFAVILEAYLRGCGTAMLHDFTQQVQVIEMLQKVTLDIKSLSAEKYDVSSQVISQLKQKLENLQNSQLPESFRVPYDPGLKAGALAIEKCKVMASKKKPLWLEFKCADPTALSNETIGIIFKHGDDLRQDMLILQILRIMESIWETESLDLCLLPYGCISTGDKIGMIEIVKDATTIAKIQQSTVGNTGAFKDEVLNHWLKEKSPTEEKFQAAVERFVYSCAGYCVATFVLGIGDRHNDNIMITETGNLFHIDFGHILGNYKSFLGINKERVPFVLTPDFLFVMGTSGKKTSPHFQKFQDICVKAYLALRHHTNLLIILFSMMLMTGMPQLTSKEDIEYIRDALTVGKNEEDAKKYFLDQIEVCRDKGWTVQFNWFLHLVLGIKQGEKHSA"}, "RIOK2": {"target": "RIOK2 (Homo sapiens, UniProt Q9BVS4)"}, "[1]": {"target": "T6, RSK2(Kin.Dom.2-C-terminal) (Homo sapiens, UniProt P51812)", "T6 construct": "gene RPS6KA3; Kin.Dom.2-C-terminal", "T6 sequence (P51812 whole entry)": "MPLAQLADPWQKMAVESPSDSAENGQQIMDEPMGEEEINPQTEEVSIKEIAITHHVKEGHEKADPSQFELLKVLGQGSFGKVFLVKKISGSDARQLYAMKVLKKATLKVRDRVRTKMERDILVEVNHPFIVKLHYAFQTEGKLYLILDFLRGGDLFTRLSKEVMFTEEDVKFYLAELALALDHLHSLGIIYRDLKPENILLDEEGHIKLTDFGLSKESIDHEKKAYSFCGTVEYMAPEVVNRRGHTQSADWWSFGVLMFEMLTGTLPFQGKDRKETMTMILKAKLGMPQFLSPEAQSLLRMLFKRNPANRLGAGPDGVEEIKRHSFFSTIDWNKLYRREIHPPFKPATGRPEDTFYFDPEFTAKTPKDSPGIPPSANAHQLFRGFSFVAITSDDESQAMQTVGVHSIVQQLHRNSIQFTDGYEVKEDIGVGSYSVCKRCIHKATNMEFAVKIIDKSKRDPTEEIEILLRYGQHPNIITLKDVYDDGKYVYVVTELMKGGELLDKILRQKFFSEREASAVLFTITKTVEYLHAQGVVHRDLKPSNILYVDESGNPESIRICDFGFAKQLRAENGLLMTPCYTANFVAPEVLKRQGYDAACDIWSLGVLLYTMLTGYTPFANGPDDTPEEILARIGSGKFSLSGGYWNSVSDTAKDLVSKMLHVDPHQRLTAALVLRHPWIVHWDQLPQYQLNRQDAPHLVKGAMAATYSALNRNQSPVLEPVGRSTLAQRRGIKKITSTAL"}, "TNK2": {"target": "TNK2 (Homo sapiens, UniProt Q07912)"}, "YANK2": {"target": "T7, YANK2 (Homo sapiens, UniProt Q9NY57)", "T7 construct": "gene STK32B"}},
  "data": [
    {"smiles": "Cc1ccc(NC(=O)c2cccc(C(F)(F)F)c2)cc1Nc1cc(-c2cccnc2)nc2[nH]ccc12", "note": "[HZX-02-059]", "values": [
      {"measurement": "remaining binding at 1 µM", "setting": "ALK(C1156Y)", "result": 99, "unit": "%"},
      {"measurement": "remaining binding at 1 µM", "setting": "CAMK1G", "result": 100, "unit": "%"},
      {"measurement": "remaining binding at 1 µM", "setting": "CDK4-cyclinD1", "result": 98, "unit": "%"},
      {"measurement": "remaining binding at 1 µM", "setting": "CSF1R-autoinhibited", "result": 93, "unit": "%"},
      {"measurement": "remaining binding at 1 µM", "setting": "DAPK3", "result": 96, "unit": "%"},
      {"measurement": "remaining binding at 1 µM", "setting": "EGFR(E746-A750del)", "result": 90, "unit": "%"},
      {"measurement": "remaining binding at 1 µM", "setting": "EGFR(G719C)", "result": 96, "unit": "%"},
      {"measurement": "remaining binding at 1 µM", "setting": "ERK2", "result": 100, "unit": "%"},
      {"measurement": "remaining binding at 1 µM", "setting": "FGFR1", "result": 93, "unit": "%"},
      {"measurement": "remaining binding at 1 µM", "setting": "FLT3(N841I)", "result": 88, "unit": "%"},
      {"measurement": "remaining binding at 1 µM", "setting": "HPK1", "result": 72, "unit": "%"},
      {"measurement": "remaining binding at 1 µM", "setting": "KIT(D816V)", "result": 93, "unit": "%"},
      {"measurement": "remaining binding at 1 µM", "setting": "KIT(L576P)", "result": 0.3, "unit": "%"},
      {"measurement": "remaining binding at 1 µM", "setting": "MARK2", "result": 78, "unit": "%"},
      {"measurement": "remaining binding at 1 µM", "setting": "MEK4", "result": 78, "unit": "%"},
      {"measurement": "remaining binding at 1 µM", "setting": "MST4", "result": 80, "unit": "%"},
      {"measurement": "remaining binding at 1 µM", "setting": "NEK5", "result": 100, "unit": "%"},
      {"measurement": "remaining binding at 1 µM", "setting": "PIK3CD", "result": 97, "unit": "%"},
      {"measurement": "remaining binding at 1 µM", "setting": "PIK3CG", "result": 96, "unit": "%"},
      {"measurement": "remaining binding at 1 µM", "setting": "RIOK2", "result": 91, "unit": "%"},
      {"measurement": "remaining binding at 1 µM", "setting": "[1]", "result": 100, "unit": "%"},
      {"measurement": "remaining binding at 1 µM", "setting": "TNK2", "result": 98, "unit": "%"},
      {"measurement": "remaining binding at 1 µM", "setting": "YANK2", "result": 100, "unit": "%"}
    ]}
  ]
}
